Test results from PMC11420878, “Labeling of CC Chemokine Receptor 2 with a Versatile Intracellular Allosteric Probe” (ACS Chemical Biology, 2024).

Experiments:
Type in all cases: binding
[1] = molecular target: T1, CC chemokine receptor 2 (CCR2) (Homo sapiens, UniProt P41597); experiment: [3H]CCR2-RA-[R] displacement, […] h preincubation; in-gel fluorescence labeling; design: CCR2 stably expressed in U2OS membranes; HA-CCR2 in HEK293T membranes
[2] = molecular target: T1, CC chemokine receptor 2 (CCR2); experiment: [3H]CCR2-RA-[R] displacement (Ki shift), in-gel fluorescence labeling, pull-down proteomics; design: CCR2 stably expressed in U2OS membranes; HA-CCR2 in HEK293T membranes
[3] = molecular target: T1, CC chemokine receptor 2 (CCR2); experiment: [3H]CCR2-RA-[R] displacement, […] h preincubation; design: CCR2 stably expressed in U2OS membranes

T1 sequence (P41597 whole entry): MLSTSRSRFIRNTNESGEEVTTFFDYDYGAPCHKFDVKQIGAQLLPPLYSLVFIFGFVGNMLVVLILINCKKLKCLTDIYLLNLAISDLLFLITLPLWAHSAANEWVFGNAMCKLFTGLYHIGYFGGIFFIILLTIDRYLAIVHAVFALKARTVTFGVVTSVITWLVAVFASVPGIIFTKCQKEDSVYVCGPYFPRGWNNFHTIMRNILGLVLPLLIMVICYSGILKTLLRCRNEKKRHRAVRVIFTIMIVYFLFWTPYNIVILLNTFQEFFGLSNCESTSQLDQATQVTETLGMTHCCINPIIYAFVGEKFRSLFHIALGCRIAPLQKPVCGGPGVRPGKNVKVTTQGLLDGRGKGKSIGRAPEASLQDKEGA

| Structure (SMILES) | Ki [1] [pM] | Ki [3] [pM] | other results |
| --- | --- | --- | --- |
| C#CCOc1cc(NC(=O)C=C)ccc1Oc1ccc(Cl)cc1NS(=O)(=O)c1ccc(Cl)c(C(F)(F)F)c1 [6a] | ~500 |  |  |
| C#CCOCCOc1cc(NC(=O)C=C)ccc1Oc1ccc(Cl)cc1NS(=O)(=O)c1ccc(Cl)c(C(F)(F)F)c1 [6b] | ~500 |  |  |
| C#CCOCCOCCOc1cc(NC(=O)C=C)ccc1Oc1ccc(Cl)cc1NS(=O)(=O)c1ccc(Cl)c(C(F)(F)F)c1 [6c, probe 6c] |  |  | Ki [2]: ~500 pM |

Further lines, with some results ahead:

| Ki [1] [pM] | Ki [3] [pM] | Structure (SMILES) | other results |
| --- | --- | --- | --- |
|  | ~1300 | C#CCOc1cc(NC(=O)CCSC#N)ccc1Oc1ccc(Cl)cc1NS(=O)(=O)c1ccc(Cl)c(C(F)(F)F)c1 [8a] |  |
|  | ~1300 | C#CCOCCOc1cc(NC(=O)CCSC#N)ccc1Oc1ccc(Cl)cc1NS(=O)(=O)c1ccc(Cl)c(C(F)(F)F)c1 [8b] |  |
|  | ~1300 | C#CCOCCOCCOc1cc(NC(=O)CCSC#N)ccc1Oc1ccc(Cl)cc1NS(=O)(=O)c1ccc(Cl)c(C(F)(F)F)c1 [8c] |  |
